Molecular target: T1, 14-3-3γ/RND3 complex (Homo sapiens, UniProt P61587+P61981)
T1 construct: RND3 pS240, PDB 8BFC; made in house; host or cells: E. coli NiCo21 (DE3)
Assay: FA / TD-FA selectivity screen, RND3 client peptide
Type: binding
Settings: 100 μM compound; for effect on RND3 binding to 14-3-3γ over time / effect on 14-3-3γ/RND3 complex at short time lengths: TD-FA
Procedure: Drugging the hub protein 14-3-3 raises the challenge of selectivity, given that 14-3-3 binds several hundred phosphoprotein partners (Figure 4a).[54] We hypothesized that the interplay of chemical reactivity, the topology, and functionality of the composite binding pocket shaped by 14-3-3 and the interaction partner drives selective stabilization of the 14-3-3/ERRγ complex.[53] To validate selectivity, molecular locks 5 and 10 were tested against a panel of nine 14-3-3 client peptides in an FA assay, and the SF100 was determined for each 14-3-3 PPI (Figure 4b and Figures S18–S20). This client panel contained a diverse representation of 14-3-3 binding proteins, differing for example in size and hydrophobicity of the +1 amino acid. Importantly, clients PKR and RND3, each containing a +1 Cys, were included in the panel.
To further assess off-target reactivity to +1 Cys-containing peptides, fragment 1, locks 5 and 10 were also screened against PKR and RND3 in the TD-FA assay.
Figure S20. KD and SF100 plot – selectivity screen. […]
nine different client peptides in presence of DMSO (negative control) or 100 µM of compound 1, 5 or 10 (based on binding curves in Figure S19). Also a bar plot representation of stabilization factor (SF100) of compounds 1, 5 and 10 for each of these peptides (bottom plot).
(1 picture or pasted object on this page, not shown here)
Experimental Section Biophysical Assays
14-3-3γ protein expression (FA, TSA, MS assays)
A pPROEX HTb expression vector encoding the human 14-3-3 protein gamma (14-3-3γ) with a N-terminal his6-tag was transformed by heat shock into NiCo21 (DE3) competent cells. Single colonies were cultured in 50 mL LB medium (100 µg/mL ampicillin). After overnight incubation at 37 °C, cultures were transferred to 2 L TB media (100 µg/mL ampicillin, 1 mM MgCl2) and incubated at 37 °C until an OD600 nm of 0.8 -1.2 was reached. Protein expression was then induced with 0.4 mM isopropyl-β-d-thiogalactoside (IPTG), and cultures were incubated overnight at 18 °C. Cells were harvested by centrifugation (8600 rpm, 20 minu tes, 4 °C) and resuspended in lysis buffer (50 mM Hepes, pH 8.0, 300 mM NaCl, 12.5 mM imidazole, 5 mM MgCl2, 2 mM βME) containing cOmplete™ EDTA-free Protease Inhibitor Cocktail tablets (1 tablet/100 ml lysate) and benzonase ( 5 µl/100 ml). After lysis using a C3 Emulsiflex-C3 homogenizer (Avestin), the cell lysate was cleared by centrifugation (20000 rpm, 30 minutes, 4 °C) and purified using Ni2+-affinity chromatography (Ni -NTA superflow cartridges, Qiagen). Typically two 5 mL columns (flow 5 mL/min) were use d for a 2 L culture in which the lysate was loaded on the column , washed with 10 CV wash buffer (50 mM Hepes, pH 8.0, 300 mM NaCl, 25 mM imidazole, 2 mM βME), and eluted in several fractions (2-4 CV) of elution buffer (50 mM Hepes, pH 8.0, 300 mM NaCl, 250 mM imidazole, 2 mM βME). Fractions containing the 14 -3-3 protein were combined and dialyzed into 25 mM HEPES pH 8.0, 100 mM NaCl, 10 mM MgCl2, 500 µM TCEP. Finally, the protein was concentrated to ∼60 mg/mL, analyzed Q-Tof LC/MS, and aliquots were flash-frozen for storage at −80 °C.
14-3-3σΔc C38N protein expression (Crystallography)
A pPROEX HTb expression vector encoding the human 14-3-3 protein sigma truncated after T231 (14-3-3σΔc), mutated C38N, and containing a N-terminal his6-tag was transformed by heat shock into NiCo21 (DE3) competent cells. Single colonies were cultured in 50 mL LB medium (100 µg/mL ampicillin). After overnight incubation at 37 °C, cultures were transferred to 2 L TB media (100 µg/mL ampicillin, 1 mM MgCl2) and incubated at 37 °C until an OD600 nm of 0.8-1.2 was reached. Protein expression was then induced with 0.4 mM isopropyl-β-d-thiogalactoside (IPTG), and cultures were incubated overnight at 18 °C. Cells were harvested by centrifugation (8600 rpm, 20 minutes, 4 °C) and resuspended in lysis buffer (50 mM Hepes, pH 8.0, 300 mM NaCl, 12.5 mM […]

T1 sequence (P61981 whole entry, other chains not shown): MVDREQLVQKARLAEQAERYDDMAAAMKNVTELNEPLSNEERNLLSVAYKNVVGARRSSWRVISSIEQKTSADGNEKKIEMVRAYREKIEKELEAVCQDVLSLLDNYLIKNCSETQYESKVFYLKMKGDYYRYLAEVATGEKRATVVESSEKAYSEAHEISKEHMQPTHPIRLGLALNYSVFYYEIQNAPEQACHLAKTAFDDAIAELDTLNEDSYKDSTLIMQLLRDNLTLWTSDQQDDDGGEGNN

Structure (SMILES)	effect on RND3 binding to 14-3-3γ over time	effect on 14-3-3γ/RND3 complex at short time lengths	SF100 (RND3 peptide)
CN(C)CCSSCCN(C)C(=O)c1cccc(F)c1 [compound 1, reference compound]	remains an inhibitor	immediate destabilization	–
CN(C)CCSSCCN(C)C(=O)c1ccc(C=O)c(F)c1 [compound 5]	–	immediate destabilization	–
CN(C)CCSSCCN(C)C(=O)c1cc(Br)cc(C=O)c1 [compound 10]	enhancement in RND3 binding	immediate destabilization	~7.9
